PubChem BioAssay AID248 (DTP/NCI, 2004)
Inconclusive results and toxic doses are left out. No stated cut-off is given here; in the data, active means T/C of 150% or more; inactive means T/C below 125%.

Tested on: L1210 leukemia ip in BDF1 mice, survival T/C
Assay: NCI In Vivo Anticancer Drug Screen. Data for tumor model L1210 Leukemia (intraperitoneal) in B6D2F1 (BDF1) mice
Conditions: endpoint: mean survival time, higher = longer survival
Method in brief: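 Tumor cells were implanted, animals were treated, and survival was followed. The result divides the treated measurement by the vehicle-control measurement.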

[1] = dose: 100.0 mg/kg/injection, schedule: Q01DX009 (ip), vehicle: saline with Tween-80
[2] = dose: 200.0 mg/kg/injection, schedule: Q01DX009 (ip), vehicle: saline with Tween-80
[3] = dose: 400.0 mg/kg/injection, schedule: Q01DX009 (ip), vehicle: saline with Tween-80
[4] = dose: 100.0 mg/kg/injection, schedule: Q01DX001 (ip), vehicle: saline
[5] = dose: 200.0 mg/kg/injection, schedule: Q01DX001 (ip), vehicle: saline
[6] = dose: 400.0 mg/kg/injection, schedule: Q01DX001 (ip), vehicle: saline

Measured: T/C

NC(=O)NN=C(CCl)CCl
inactive: dose: 100.0 mg/kg/injection, schedule: Q04DX002 (ip), vehicle: saline 100 % of control | dose: 200.0 mg/kg/injection, schedule: Q04DX002 (ip), vehicle: saline 91 % of control

OCC1OCOC2COCOC12 (stereo unspecified)
inactive: [1] 94 % of control | [2] 98 % of control | [3] 104 % of control

CC(O)C1CCN(Cc2ccccc2)CC1 (stereo unspecified)
inactive: dose: 50.0 mg/kg/injection, schedule: Q01DX001 (ip), vehicle: carboxymethylcellulose (CMC) 101 % of control | dose: 100.0 mg/kg/injection, schedule: Q01DX001 (ip), vehicle: carboxymethylcellulose (CMC) 108 % of control | dose: 200.0 mg/kg/injection, schedule: Q01DX001 (ip), vehicle: carboxymethylcellulose (CMC) 106 % of control

CSc1nc(NN)cc(-c2ccccc2)n1
inactive: dose: 100.0 mg/kg/injection, schedule: Q01DX Z (ip), vehicle: methylcellulose (MC) 98 % of control | dose: 200.0 mg/kg/injection, schedule: Q01DX Z (ip), vehicle: methylcellulose (MC) 90 % of control

O=S(=O)(Nc1c(O)ccc2ccccc12)c1ccccc1
inactive: [1] 95 % of control | [2] 93 % of control | [3] 90 % of control

COCCN=Cc1ccc(N(C)C)cc1
inactive: dose: 100.0 mg/kg/injection, schedule: Q04DX002 (ip), vehicle: saline with Tween-80 103 % of control | dose: 200.0 mg/kg/injection, schedule: Q04DX002 (ip), vehicle: saline with Tween-80 100 % of control | dose: 400.0 mg/kg/injection, schedule: Q04DX002 (ip), vehicle: saline with Tween-80 100 % of control

CCCCCCC(C)O[Si](C)c1ccc(CC)cc1 (stereo unspecified)
inactive: dose: 100.0 mg/kg/injection, schedule: Q04DX003 (ip), vehicle: saline with Tween-80 99 % of control | dose: 200.0 mg/kg/injection, schedule: Q04DX003 (ip), vehicle: saline with Tween-80 95 % of control | dose: 400.0 mg/kg/injection, schedule: Q04DX003 (ip), vehicle: saline with Tween-80 103 % of control

CCCCCCCCCCN=C(N)N/C(N)=N/S(=O)(=O)c1ccc(OCCCC)cc1
inactive: dose: 100.0 mg/kg/injection, schedule: Q04DX002 (ip), vehicle: Klucel (hydroxypropylcellulose) (HPC) 103 % of control | dose: 200.0 mg/kg/injection, schedule: Q04DX002 (ip), vehicle: Klucel (hydroxypropylcellulose) (HPC) 95 % of control | dose: 400.0 mg/kg/injection, schedule: Q04DX002 (ip), vehicle: Klucel (hydroxypropylcellulose) (HPC) 103 % of control

CC1(CS(=O)(=O)c2ccccc2)C(=O)C2CCC1C2 (stereo unspecified)
inactive: [4] 90 % of control | dose: 100.0 mg/kg/injection, schedule: Q04DX003 (ip), vehicle: saline 94 % of control | [5] 98 % of control | dose: 200.0 mg/kg/injection, schedule: Q04DX003 (ip), vehicle: saline 89 % of control | [6] 88 % of control | dose: 400.0 mg/kg/injection, schedule: Q04DX003 (ip), vehicle: saline 98 % of control

O=S(=O)(O)c1ccncc1
inactive: [4] 96 % of control | dose: 100.0 mg/kg/injection, schedule: Q01DX009 (ip), vehicle: saline 96 % of control | [5] 91 % of control | dose: 200.0 mg/kg/injection, schedule: Q01DX009 (ip), vehicle: saline 87 % of control | [6] 88 % of control | dose: 400.0 mg/kg/injection, schedule: Q01DX009 (ip), vehicle: saline 96 % of control

OC1C2COc3nc4ccccc4n3C(O2)C1O (stereo unspecified)
inactive: [4] 97 % of control | [5] 95 % of control

CC1C(OC(=O)Cc2ccccc2)=CCC2C1(C)CCC1C2(C)CCC2(C)C3CC(C)(C)CCC3(C)CCC12C (stereo unspecified)
inactive: [4] 98 % of control | [5] 104 % of control | [6] 104 % of control

CSC1SC(C)CC(C)S1 (stereo unspecified)
inactive: dose: 12.5 mg/kg/injection, schedule: Q04DX002 (ip), vehicle: Klucel (hydroxypropylcellulose) (HPC) 95 % of control | dose: 25.0 mg/kg/injection, schedule: Q04DX002 (ip), vehicle: Klucel (hydroxypropylcellulose) (HPC) 92 % of control | dose: 50.0 mg/kg/injection, schedule: Q04DX002 (ip), vehicle: Klucel (hydroxypropylcellulose) (HPC) 98 % of control

O=[N+]([O-])c1nccn1C1OC(CO)C(O)C1O (stereo unspecified)
inactive: dose: 50.0 mg/kg/injection, schedule: Q01DX001 (ip), vehicle: saline 98 % of control | [4] 98 % of control | [5] 102 % of control | [6] 102 % of control
